Measurements taken from patent US12077503B2, “Substituted cyclic amides and their use as herbicides” (FMC CORPORATION, priority 2015, dated 2024).

Assays:
Assay type in all cases: in vivo
[1] = tested on: ivy-leaved morning glory (Ipomoea hederacea); experiment: Test G Pre-Emergence Protocol; conditions: Ipomoea, pre-emergence, 312 h, evaluated after 13 days; for pest or weed control at 15.625 g/ha: 15.625 g ai/ha, read-out: Morning-glory, Ivy-leaved damage rating (100=total damage to plant; 0=no damage to plant); for pest or weed control at 62.5 g/ha: 62.5 g ai/ha, 100=total damage to plant, 0=no damage to plant, read-out: plant damage rating, Morningglory, Ivy-leaved; for pest or weed control at 250 g/ha: 250 g ai/ha, read-out: Morningglory, Ivy-leaved damage rating (100=total damage to plant; 0=no damage to plant)
Summary of the method: (§1)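 Herbicidal effect was rated 13 days post-application on a scale where 100 equals total damage. Spraying took place the day after sowing, using 15.625, 62.5 or 250 g/ha of compound in a 50:50 acetone/water solution with 0.5% Tween 20.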

corn (Zea mays) [2] = experiment: Test G Pre-Emergence Protocol; conditions: Zea mays, pre-emergence, 312 h, evaluated after 13 days; for plant injury at 15.625 g/ha: 15.625 g ai/ha; for plant injury at 15.625 g/ha / plant injury at 250 g/ha: read-out: Corn damage rating (100=total damage to plant; 0=no damage to plant); for plant injury at 62.5 g/ha: 62.5 g ai/ha, 100=total damage to plant, 0=no damage to plant, read-out: plant damage rating, Corn; for plant injury at 250 g/ha: 250 g ai/ha
Summary of the method: as §1

[3] = tested on: redroot pigweed (Amaranthus retroflexus); experiment: Test G Pre-Emergence Protocol; conditions: Amaranthus retroflexus, pre-emergence, 312 h, evaluated after 13 days; for pest or weed control at 15.625 g/ha: 15.625 g ai/ha; for pest or weed control at 15.625 g/ha / pest or weed control at 250 g/ha: read-out: Pigweed, Redroot damage rating (100=total damage to plant; 0=no damage to plant); for pest or weed control at 62.5 g/ha: 62.5 g ai/ha, 100=total damage to plant, 0=no damage to plant, read-out: plant damage rating, Pigweed, Redroot; for pest or weed control at 250 g/ha: 250 g ai/ha
Summary of the method: as §1

[4] = tested on: barnyardgrass (Echinochloa crus-galli); experiment: Test G Pre-Emergence Protocol; conditions: Echinochloa crus-galli, pre-emergence, 312 h, evaluated after 13 days; for pest or weed control at 15.625 g/ha: 15.625 g ai/ha, read-out: Barnyard grass damage rating (100=total damage to plant; 0=no damage to plant); for pest or weed control at 62.5 g/ha: 62.5 g ai/ha, 100=total damage to plant, 0=no damage to plant, read-out: plant damage rating, Barnyardgrass; for pest or weed control at 250 g/ha: 250 g ai/ha, read-out: Barnyardgrass damage rating (100=total damage to plant; 0=no damage to plant)
Summary of the method: as §1

[5] = tested on: giant foxtail (Setaria faberi); experiment: Test G Pre-Emergence Protocol; conditions: Setaria faberi, pre-emergence, 312 h, evaluated after 13 days; for pest or weed control at 15.625 g/ha: 15.625 g ai/ha; for pest or weed control at 15.625 g/ha / pest or weed control at 250 g/ha: read-out: Foxtail, Giant damage rating (100=total damage to plant; 0=no damage to plant); for pest or weed control at 62.5 g/ha: 62.5 g ai/ha, 100=total damage to plant, 0=no damage to plant, read-out: plant damage rating, Foxtail, Giant; for pest or weed control at 250 g/ha: 250 g ai/ha
Summary of the method: as §1

[6] = tested on: velvetleaf (Abutilon theophrasti); experiment: Test G Pre-Emergence Protocol; conditions: Abutilon theophrasti, pre-emergence, 312 h, evaluated after 13 days; for pest or weed control at 15.625 g/ha: 15.625 g ai/ha; for pest or weed control at 15.625 g/ha / pest or weed control at 250 g/ha: read-out: Velvetleaf damage rating (100=total damage to plant; 0=no damage to plant); for pest or weed control at 62.5 g/ha: 62.5 g ai/ha, 100=total damage to plant, 0=no damage to plant, read-out: plant damage rating, Velvetleaf; for pest or weed control at 250 g/ha: 250 g ai/ha
Summary of the method: as §1

[7] = tested on: ivy-leaved morning glory (Ipomoea hederacea); experiment: Test G Post-Emergence Protocol; conditions: Ipomoea, post-emergence, 312 h; for pest or weed control at 15.625 g/ha: 15.625 g ai/ha, evaluated after 13 days (100=total damage to plant; 0=no damage to plant), read-out: Morningglory, Ivy-leaved damage rating; for pest or weed control at 62.5 g/ha: 62.5 g ai/ha, read-out: Morningglory, Ivy-leaved damage rating (100=total damage to plant; 0=no damage to plant); for pest or weed control at 62.5 g/ha / pest or weed control at 250 g/ha: evaluated after 13 days; for pest or weed control at 250 g/ha: 250 g ai/ha, read-out: damage to plant, Morningglory, Ivy-leaved (100=total damage to plant; 0=no damage to plant)
Summary of the method: (§2)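 Post-emergence herbicidal damage, scored visually 0–100 at 13 days. Application at 15.625, 62.5 or 250 g/ha onto 8-day-old plants grown under glasshouse control.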

corn (Zea mays) [8] = experiment: Test G Post-Emergence Protocol; conditions: Zea mays, post-emergence, 312 h; for plant injury at 15.625 g/ha: 15.625 g ai/ha, evaluated after 13 days (100=total damage to plant; 0=no damage to plant), read-out: Corn damage rating; for plant injury at 62.5 g/ha: 62.5 g ai/ha, read-out: Corn damage rating (100=total damage to plant; 0=no damage to plant); for plant injury at 62.5 g/ha / plant injury at 250 g/ha: evaluated after 13 days; for plant injury at 250 g/ha: 250 g ai/ha, read-out: damage to plant, Corn (100=total damage to plant; 0=no damage to plant)
Summary of the method: as §2

[9] = tested on: redroot pigweed (Amaranthus retroflexus); experiment: Test G Post-Emergence Protocol; conditions: Amaranthus retroflexus, post-emergence, 312 h; for pest or weed control at 15.625 g/ha: 15.625 g ai/ha, evaluated after 13 days (100=total damage to plant; 0=no damage to plant), read-out: Pigweed, Redroot damage rating; for pest or weed control at 62.5 g/ha: 62.5 g ai/ha, read-out: Pigweed, Redroot damage rating (100=total damage to plant; 0=no damage to plant); for pest or weed control at 62.5 g/ha / pest or weed control at 250 g/ha: evaluated after 13 days; for pest or weed control at 250 g/ha: 250 g ai/ha, read-out: damage to plant, Pigweed, Redroot (100=total damage to plant; 0=no damage to plant)
Summary of the method: as §2

[10] = tested on: barnyardgrass (Echinochloa crus-galli); experiment: Test G Post-Emergence Protocol; conditions: Echinochloa crus-galli, post-emergence, 312 h; for pest or weed control at 15.625 g/ha: 15.625 g ai/ha, evaluated after 13 days (100=total damage to plant; 0=no damage to plant), read-out: Barnyardgrass damage rating; for pest or weed control at 62.5 g/ha: 62.5 g ai/ha, read-out: Barnyardgrass damage rating (100=total damage to plant; 0=no damage to plant); for pest or weed control at 62.5 g/ha / pest or weed control at 250 g/ha: evaluated after 13 days; for pest or weed control at 250 g/ha: 250 g ai/ha, read-out: damage to plant, Barnyardgrass (100=total damage to plant; 0=no damage to plant)
Summary of the method: as §2

[11] = tested on: giant foxtail (Setaria faberi); experiment: Test G Post-Emergence Protocol; conditions: Setaria faberi, post-emergence, 312 h; for pest or weed control at 15.625 g/ha: 15.625 g ai/ha, evaluated after 13 days (100=total damage to plant; 0=no damage to plant), read-out: Foxtail, Giant damage rating; for pest or weed control at 62.5 g/ha: 62.5 g ai/ha, read-out: Foxtail, Giant damage rating (100=total damage to plant; 0=no damage to plant); for pest or weed control at 62.5 g/ha / pest or weed control at 250 g/ha: evaluated after 13 days; for pest or weed control at 250 g/ha: 250 g ai/ha, read-out: damage to plant, Foxtail, Giant (100=total damage to plant; 0=no damage to plant)
Summary of the method: as §2

[12] = tested on: velvetleaf (Abutilon theophrasti); experiment: Test G Post-Emergence Protocol; conditions: Abutilon theophrasti, post-emergence, 312 h; for pest or weed control at 15.625 g/ha: 15.625 g ai/ha, evaluated after 13 days (100=total damage to plant; 0=no damage to plant), read-out: Velvetleaf damage rating; for pest or weed control at 62.5 g/ha: 62.5 g ai/ha, read-out: Velvetleaf damage rating (100=total damage to plant; 0=no damage to plant); for pest or weed control at 62.5 g/ha / pest or weed control at 250 g/ha: evaluated after 13 days; for pest or weed control at 250 g/ha: 250 g ai/ha, read-out: damage to plant, Velvetleaf (100=total damage to plant; 0=no damage to plant)
Summary of the method: as §2

Structure (SMILES) | pest or weed control at 15.625 g/ha [1] [%] | pest or weed control at 62.5 g/ha [1] [%] | pest or weed control at 250 g/ha [1] [%] | plant injury at 15.625 g/ha (corn (Zea mays) [2]) [%] | plant injury at 62.5 g/ha (corn (Zea mays) [2]) [%] | plant injury at 250 g/ha (corn (Zea mays) [2]) [%] | pest or weed control at 15.625 g/ha [3] [%] | pest or weed control at 62.5 g/ha [3] [%] | pest or weed control at 250 g/ha [3] [%] | pest or weed control at 15.625 g/ha [4] [%] | pest or weed control at 62.5 g/ha [4] [%] | pest or weed control at 250 g/ha [4] [%] | pest or weed control at 15.625 g/ha [5] [%] | pest or weed control at 62.5 g/ha [5] [%] | pest or weed control at 250 g/ha [5] [%] | pest or weed control at 15.625 g/ha [6] [%] | pest or weed control at 62.5 g/ha [6] [%] | pest or weed control at 250 g/ha [6] [%] | pest or weed control at 15.625 g/ha [7] [%] | pest or weed control at 62.5 g/ha [7] [%] | other results
CN1C[C@@H](c2ccc(C(F)(F)F)cc2)[C@H](C(=O)Nc2ncnn2C)C1=O (racemic) [Compound 1643] | 0 | 0 | 0 | 0 | 0 | 0 | 0 | 0 | 0 | 0 | 0 | 0 | 0 | 0 | 0 | 0 | 0 | 0 | 0 | 0 | pest or weed control at 250 g/ha [7]: 0%; plant injury at 15.625 g/ha (corn (Zea mays) [8]): 0%; plant injury at 62.5 g/ha (corn (Zea mays) [8]): 0%; plant injury at 250 g/ha (corn (Zea mays) [8]): 0%; pest or weed control at 15.625 g/ha [9]: 0%; pest or weed control at 62.5 g/ha [9]: 0%; pest or weed control at 250 g/ha [9]: 0%; pest or weed control at 15.625 g/ha [10]: 0%; pest or weed control at 62.5 g/ha [10]: 0%; pest or weed control at 250 g/ha [10]: 0%; pest or weed control at 15.625 g/ha [11]: 0%; pest or weed control at 62.5 g/ha [11]: 0%; pest or weed control at 250 g/ha [11]: 0%; pest or weed control at 15.625 g/ha [12]: 0%; pest or weed control at 62.5 g/ha [12]: 0%; pest or weed control at 250 g/ha [12]: 0%
CN1C[C@@H](c2ccc(C(F)(F)F)cc2)[C@H](C(=O)Nc2cc(Cl)nc(Cl)c2)C1=O (racemic) [Compound 1519] | 0 | 0 | 0 | 0 | 0 | 0 | 0 | 0 | 0 | 0 | 0 | 0 | 0 | 0 | 0 | 0 | 0 | 0 | 0 | 0 | pest or weed control at 250 g/ha [7]: 0%; plant injury at 15.625 g/ha (corn (Zea mays) [8]): 10%; plant injury at 62.5 g/ha (corn (Zea mays) [8]): 10%; plant injury at 250 g/ha (corn (Zea mays) [8]): 0%; pest or weed control at 15.625 g/ha [9]: 0%; pest or weed control at 62.5 g/ha [9]: 0%; pest or weed control at 250 g/ha [9]: 0%; pest or weed control at 15.625 g/ha [10]: 0%; pest or weed control at 62.5 g/ha [10]: 0%; pest or weed control at 250 g/ha [10]: 0%; pest or weed control at 15.625 g/ha [11]: 0%; pest or weed control at 62.5 g/ha [11]: 0%; pest or weed control at 250 g/ha [11]: 0%; pest or weed control at 15.625 g/ha [12]: 0%; pest or weed control at 62.5 g/ha [12]: 0%; pest or weed control at 250 g/ha [12]: 0%
